# From patent US20200069691A1, “HETEROCYCLIC COMPOUNDS AS HIV PROTEASE INHIBITORS” (Merck Sharp & Dohme Corp., priority 2016, published 2020)
# Molecular target: T1, wild-type HIV-1 protease (Human immunodeficiency virus type 1 group M subtype B, UniProt P04585)
# T1 construct: Escherichia coli expressed wild-type HIV-1 protease protein
# Assay: Assay for Inhibition of Microbial Expressed HIV Protease (peptide substrate cleavage, LC-MS/MS readout)
# Format: biochemical
# Conditions: E. coli expressed wild-type HIV-1 protease, mean of at least two independent experiments, read-out: HIV Pr Enzyme HIV1 PR IC50
# Procedure: Assay for Inhibition of Microbial Expressed HIV Protease
# Inhibition of Escherichia coli expressed wild-type HIV-1 protease protein was carried out with a peptide substrate [Val-Ser-Gln-Asn-(βnaphtyl)Ala-Pro-Ile-Val]. The inhibitor compound was preincubated with HIV-1 protease enzyme in assay buffer (50 mM sodium acetate, pH 5.5, 100 mM NaCl, and 0.1% BSA) for 30 minutes at room temperature. Peptide substrate was added to 400 μM in a total volume of 20 μL containing […] HIV-1 protease (final) after which the reaction was incubated for 1 hour at 30° C. […] The extent of inhibition of the reaction was determined from the peak area of the products.
# Data shown in the table reflects the mean of at least two independent experiments.
row,Structure (SMILES),IC50
1,"C[S+]([O-])c1cccc(-c2ncc3c(n2)CN(C(=O)c2cc(CN4C(=N)N[C@](CCCC(F)(F)F)(c5ccc(F)cc5)C4=O)ccc2C(F)(F)F)C3)c1 (stereo partly drawn) [Compound 21, (5R)-5-(4-fluorophenyl)-2-imino-3-[3-({2-[3-(methylsulfmyl)phenyl]-5,7-dihydro-6H-pyrrolo[3,4-d]pyrimidin-6-yl}carbonyl)-4-(trifluoromethyl)benzyl]-5-(4,4,4-trifluorobutyl)imidazolidin-4-one]",2.31 nM
2,"N=C1N[C@](CCCC(F)(F)F)(c2ccc(F)cc2)C(=O)N1Cc1ccc(C(F)(F)F)c(C(=O)N2Cc3cnc(-c4cccc5[nH]ncc45)nc3C2)c1 [Compound 22, (5R)-5-(4-fluorophenyl)-2-imino-3-[3-{[2-(1H-indazol-4-yl)-5,7-dihydro-6H-pyirolo[3,4-d]pyrimidin-6-yl]carbonyl}-4-(trifluoromethyl)benzyl]-5-(4,4,4-trifluorobutyl)imidazolidin-4-one]",2.32 nM
3,"CC(C)CCC(c1ccc(C(F)(F)F)c(C(=O)N2CCn3c(nnc3C(F)(F)F)C2)c1)N1C(=N)N[C@](CCC(C)C)(c2ccccc2)C1=O (stereo partly drawn) [Compound 23, (5R)-2-imino-5-(3-methylbutyl)-3-{4-methyl-1-[4-(trifluoromethyl)-3-{[3-(trifluoromethyl)-5,6-dihydro[1,2,4]triazolo[4,3-a]pyrazin-7(8H)-yl]carbonyl}phenyl]pentyl}-5-phenylimidazolidin-4-one]",2.38 nM
4,"CS(=O)(=O)c1cccc(-c2ncc3c(n2)CN(C(=O)c2cc(CN4C(=N)N[C@](CCCC(F)(F)F)(c5ccc(F)cc5)C4=O)ccc2C(F)(F)F)C3)c1 [Compound 24, (5R)-5-(4-fluorophenyl)-2-imino-3-[3-({2-[3-(methylsulfonyl)phenyl]-5,7-dihydro-6H-pyrrolo[3,4-d]pyrimidin-6-yl}carbonyl)-4-(trifluoromethyl)benzyl]-5-(4,4,4-trifluorobutyl)imidazolidin-4-one]",2.41 nM
5,"CN1CCN(c2cncc(-c3ncc4c(n3)CN(C(=O)c3cc(CN5C(=N)N[C@](CCCC(F)(F)F)(c6ccc(F)cc6)C5=O)ccc3C(F)(F)F)C4)c2)CC1 [Compound 25, (5R)-5-(4-fluorophenyl)-2-imino-3-[3-({2-[5-(4-methylpiperazin-1-yl)pyridin-3-yl]-5,7-dihydro-6H-pyirolo[3,4-d]pyrimidin-6-yl}carbonyl)-4-(trifluoromethyl)benzyl]-5-(4,4,4-trifluorobutyl)imidazolidin-4-one]",2.59 nM
6,"N=C1NC(CCC2CC2)(c2cccc(F)c2)C(=O)N1Cc1ccc(C(F)(F)F)c(C(=O)N2Cc3nccnc3C2)c1 (centres unmarked) [Compound 26, 5-(2-cyclopropylethyl)-3-[3-(5,7-dihydro-6H-pyrrolo[3,4-b]pyrazin-6-ylcarbonyl)-4-(trifluoromethyl)benzyl]-5-(3-fluorophenyl)-2-iminoimidazolidin-4-one]",2.85 nM
7,"Cc1n[nH]cc1-c1ncc2c(n1)CN(C(=O)c1cc(CN3C(=N)N[C@](CCCC(F)(F)F)(c4ccc(F)cc4)C3=O)ccc1C(F)(F)F)C2 [Compound 27, (5R)-5-(4-fluorophenyl)-2-imino-3-[3-{[2-(3-methyl-1H-pyrazol-4-yl)-5,7-dihydro-6H-pyrrolo[3,4-d]pyrimidin-6-yl]carbonyl}-4-(trifluoromethyl)benzyl]-5-(4,4,4-trifluorobutyl)imidazolidin-4-one]",2.88 nM
8,"N=C1N[C@](CCCC(F)(F)F)(c2ccc(F)cc2)C(=O)N1Cc1ccc(C(F)(F)F)c(C(=O)N2Cc3cnc(-c4cnn5c4CCCC5)nc3C2)c1 [Compound 28, (5R)-5-(4-fluorophenyl)-2-imino-3-[3-{[2-(4,5,6,7-tetrahydropyrazolo-[1,5-a]pyridin-3-yl)-5,7-dihydro-6H-pyrrolo[3,4-d]pyrimidin-6-yl]carbonyl}-4-(trifluoromethyl)-benzyl]-5-(4,4,4-trifluorobutyl)imidazolidin-4-one]",3.04 nM
9,"CC(C)CC(c1ccc(C(F)(F)F)c(C(=O)N2CCn3c(nnc3C(F)(F)F)C2)c1)N1C(=N)N[C@@](C[C@@H]2CCOC2)(c2ccc(F)cc2)C1=O (stereo partly drawn) [Compound 29, (5S)-5-(4-fluorophenyl)-2-imino-3-{3-methyl-1-[4-(trifluoromethyl)-3-{[3-(trifluoromethyl)-5,6-dihydro-[1,2,4]triazolo[4,3-a]pyrazin-7(8H)-yl]carbonyl}phenyl]butyl}-5-[(3R)-tetrahydrofuran-3-ylmethyl]-imidazolidin-4-one]",3.07 nM
10,"CC(C)CC[C@]1(c2ccccc2)NC(=N)N(Cc2ccc(C(F)(F)F)c(C(=O)N3Cc4nccnc4C3)c2)C1=O [Compound 30, (5R)-3-[3-(5,7-dihydro-6H-pyrrolo[3,4-b]pyrazin-6-ylcarbonyl)-4-(trifluoromethyl)-benzyl]-2-iirrino-5-(3-methylbutyl)-5-phenylimidazolidin-4-one]",3.08 nM
11,"CC(C)CC[C@]1(c2ccccc2)NC(=N)N(C(CC(C)C)c2ccc(C(F)(F)F)c(C(=O)N3Cc4nccnc4C3)c2)C1=O (stereo partly drawn) [Compound 31, (5R)-3-{1-[3-(5,7-dihydro-6H-pyrrolo[3,4-b]pyrazin-6-ylcarbonyl)-4-(trifluoromethyl)-phenyl]-3-methylbutyl}-2-imino-5-(3-methylbutyl)-5-phenylimidazolidin-4-one]",3.13 nM
12,"N=C1N[C@](CCCC(F)(F)F)(c2ccc(F)cc2)C(=O)N1Cc1ccc(C(F)(F)F)c(C(=O)N2Cc3cnc(-c4ccc5ncnn5c4)nc3C2)c1 [Compound 32, (5R)-5-(4-fluorophenyl)-2-imino-3-{3-[(2-[1,2,4]triazolo[1,5-a]pyridin-6-yl-5,7-dihydro-6H-pyrrolo[3,4-d]pyrimidin-6-yl)carbonyl]-4-(trifluoromethyl)benzyl}-5-(4,4,4-trifluorobutyl)imidazolidin-4-one]",3.21 nM
13,"N=C1N[C@](CCCC(F)(F)F)(c2ccc(F)cc2)C(=O)N1Cc1ccc(C(F)(F)F)c(C(=O)N2Cc3cnc(-c4cnn(CCN5CCOCC5)c4)nc3C2)c1 [Compound 33, (5R)-5-(4-fluorophenyl)-2-imino-3-[3-({2-[1-(2-morpholin-4-ylethyl)-1H-pyrazol-4-yl]-5,7-dihydro-6H-pyrrolo[3,4-d]pyrimidin-6-yl}carbonyl)-4-(trifluoromethyl)-benzyl]-5-(4,4,4-trifluorobutyl)-imidazolidin-4-one]",3.26 nM
14,"N=C1N[C@](CCCC(F)(F)F)(c2ccc(F)cc2)C(=O)N1Cc1ccc(C(F)(F)F)c(C(=O)N2Cc3cnc(-c4cnn5c4CCC5)nc3C2)c1 [Compound 34, (5R)-3-[3-{[2-(5,6-dihydro-4H-pyrrolo[1,2-b]pyrazol-3-yl)-5,7-dihydro-6H-pyrrolo[3,4-d]pyrimidin-6-yl]carbonyl}-4-(trifluoromethyl)benzyl]-5-(4-fluorophenyl)-2-imino-5-(4,4,4-trifluorobutyl)imidazolidin-4-one]",3.36 nM
15,"N=C1N[C@](CCCC(F)(F)F)(c2ccc(F)cc2)C(=O)N1Cc1ccc(C(F)(F)F)c(C(=O)N2Cc3cnc(Cl)nc3C2)c1 [Compound 35, (5R)-3-{3-[(2-chloro-5,7-dihydro-6H-pyrrolo[3,4-d]pyrimidin-6-yl)carbonyl]-4-(trifluoromethyl)-benzyl}-5-(4-fluorophenyl)-2-imino-5-(4,4,4-trifluorobutyl)-imidazolidin-4-one]",3.42 nM
16,"N=C1N[C@](CCCC(F)(F)F)(c2ccc(F)cc2)C(=O)N1Cc1ccc(C(F)(F)F)c(C(=O)N2Cc3cnc(N[C@@H]4CCOC4)nc3C2)c1 [Compound 36, (5R)-5-(4-fluorophenyl)-2-imino-3-[3-({2-[(3R)-tetrahydrofuran-3-ylamino]-5,7-dihydro-6H-pyrrolo[3,4-d]pyrimidin-6-yl}carbonyl)-4-(trifluoromethyl)-benzyl]-5-(4,4,4-trifluorobutyl)-imidazolidin-4-one]",3.51 nM
17,"N=C1N[C@](CCC2CC2)(c2ccc(F)cc2)C(=O)N1C(CCc1ccccc1)c1ccc(C(F)(F)F)c(C(=O)N2CCn3c(nnc3C(F)(F)F)C2)c1 (stereo partly drawn) [Compound 37, (5R)-5-(2-cyclopropylethyl)-5-(4-fluorophenyl)-2-imino-3-{3-phenyl-1-[4-(trifluoromethyl)-3-{[3-(trifluoromethyl)-5,6-dihydro-[1,2,4]triazolo[4,3-a]pyrazin-7(8H)-yl]carbonyl}phenyl]propyl} imidazolidin-4-one]",3.89 nM
18,"CC(C)OCC(c1ccc(C(F)(F)F)c(C(=O)N2Cc3nccnc3C2)c1)N1C(=N)N[C@](CCC2CC2)(c2ccc(F)cc2)C1=O (stereo partly drawn) [Compound 38, (5R)-5-(2-cyclopropylethyl)-3-{1-[3-(5,7-dihydro-6H-pyrrolo[3,4-b]pyrazin-6-ylcarbonyl)-4-(trifluoromethyl)phenyl]-2-(1-methylethoxy)ethyl}-5-(4-fluorophenyl)-2-iminoimidazolidin-4-one]",4.03 nM
19,"N=C1N[C@](CCCC(F)(F)F)(c2ccc(F)cc2)C(=O)N1Cc1ccc(C(F)(F)F)c(C(=O)N2Cc3cnc(-c4cnc5[nH]ccc5c4)nc3C2)c1 [Compound 39, (5R)-5-(4-fluorophenyl)-2-imino-3-[3-{[2-(1H-pyrrolo[2,3-b]pyridin-5-yl)-5,7-dihydro-6H-pyrrolo[3,4-d]pyrimidin-6-yl]carbonyl}-4-(trifluoromethyl)benzyl]-5-(4,4,4-trifluorobutyl)imidazolidin-4-one]",4.1 nM
20,"N=C1N[C@](CCCC(F)(F)F)(c2ccc(F)cc2)C(=O)N1Cc1ccc(C(F)(F)F)c(C(=O)N2Cc3cnc(-c4cccc(-c5ccn[nH]5)c4)nc3C2)c1 [Compound 40, (5R)-5-(4-fluorophenyl)-2-imino-3-[3-({2-[3-(1H-pyrazol-5-yl)phenyl]-5,7-dihydro-6H-pyrrolo[3,4-d]pyrimidin-6-yl}carbonyl)-4-(trifluoromethyl)benzyl]-5-(4,4,4-trifluorobutyl)imidazolidin-4-one]",4.13 nM
